Assay results reported in article PMC8901748, “A novel prostaglandin E receptor 4 (EP4) small molecule antagonist induces articular cartilage regeneration” (Cell Discovery, 2022).

How the values were obtained:
CRE-Luc in ATDC5 cells = experiment: CRE-Luc luciferase reporter assay; type: cell-based, mouse; settings: for CRE-Luc activity: 12 hr
Description: Six firefly luciferase reporters were used in the Luciferase assay, including CRE-Luc (PathDetect CRE cis-Reporting System; Stratagene, La Jolla CA) driven by a basic promoter (TATA box) plus four repeats of CRE; Sox9 promoter-Luc contains human SOX9 proximal promoter region (−1034 bp to +67 bp)[45]; 4 × 48-p89-Luc, mouse Col2a1 minimal promoter. AP-1-Luc, Nf-κb-Luc, STAT-Luc were obtained from Stratagene. Chondrocytes were cultured in 24-well plates and 300 ng firefly luciferase reporter constructs were transiently transfected using transfection reagent TransExellent-DNA (Cenji Biotech Inc, China) following manufacturer’s instruction, and 15 ng of the Copia-Renilla luciferase reporter was co-transfected as a normalization control. […] The Dual-Luciferase measurements were performed in triplicate using the Luciferase assay kit (Promega) and a LUMIstar Omega luminometer (BMG Labtech, Mornington, Australia).

[1] = test system: articular cartilage defect; experiment: DMM surgery-induced CD mouse model; type: in vivo, mice (strain C57/BL/6); settings: Grapiprant 30 mg/kg, HL-43 10 mg/kg, compared to vehicle
Description: EP4^f/f mice[67] were crossed with the Col2-cre strain to generate Col2-cre; EP4^f/f (EP4^Col2) mice, or were crossed with Aggrecan-creERT2[68] mice to generate EP4^f/f; Aggrecan-CreERT2 (EP4^AcanERT2) mice. Mice were maintained at the animal center of East China Normal University. All mouse experiments were approved by Ethics Committee at East China Normal University. Mice of the same genetic background were generated and raised under identical conditions. Sex-matched littermate mice were compared. For the DMM surgery-induced CD mouse model, WT mice (strain C57/BL/6) or EP4^Acan mice were used, n = 5 for each group. DMM surgery was carried out as previous described using 10-week-old male mice[69],[70]; while Sham-operated mice were used as controls. Knee joints were collected for histological analysis 6 or 8 weeks after surgery. Osteoarthritis Research Society International (OARSI) histopathology grading system was used to evaluate the sections, six sections of the articular cartilage of each mouse were evaluated. Synovitis was assessed by the synovitis score. Therapy with oral EP4 inhibitors was initiated one day after surgery and continued for 8 weeks, n = 8 for each group. EP4 inhibitors and Celecoxib were dissolved in carboxymethylcellulose sodium which is prepared at the concentration of 0.5%, and vehicle contained carboxymethylcellulose sodium alone. The vehicle, Celecoxib, Grapiprant, and HL-43 were delivered to mice at indicated doses daily by gavage, Celecoxib purchased from damas-beta (29322B), Grapiprant was purchased from Yuduobio, Shanghai, all other EP4 antagonists were synthesized by Dr. Hankun Zhang’s lab.
Von Frey nylon filaments were used to test the hind-paw reflex sensitivity to punctate static mechanical stimuli. Mice were habituated to the wire mesh bottom cages for 30 min before the test. von Frey filaments (Aesthesio von Frey Kit, Ugo Basile, Varese, Italy) were applied from underneath the mouse in ascending order to the mid-plantar surface of the hind paws. If withdrawal response was not induced, the next level of von Frey hair was applied until at least six withdrawals occurred in ten stimuli. This minimal force required to elicit 50% positive response was recorded as the paw withdrawal threshold[73],[74].
The paw withdrawal latency (PWL) and threshold (PWT) of thermal hyperalgesia were measured using the Ugo-Basile 37370 plantar test (Comerio, Italy). The mice were placed on a glass plate of constant temperature for 30 min before each test. Thermal thresholds of the ipsilateral hind paws were assessed three times with a 10 min interval between trials. The time(s) from irradiation to paw withdrawal was recorded as the thermal withdrawal latency. […]

Row | SMILES | CRE-Luc activity (CRE-Luc in ATDC5 cells) | Expression of Col2, Acan, and Sox9 in knee joint [1] | Expression of Mmp13 and ColX in knee joint [1] | CRE-Luc reporter activity under pro-inflammatory conditions (CRE-Luc in ATDC5 cells; 2 ng/ml IL-1β or 100 nM PGE2, 6 h)
1 | CCc1nc2c(C)nc(C)cc2n1-c1ccc(CCNC(=O)NS(=O)(=O)c2ccc(C)cc2)cc1 [Grapiprant] | increase CRE-Luc activity in a dose dependent manner | increased | decreased | –
2 | C[C@H](NC(=O)c1c(-c2ccccc2)nnn1CCOc1ccc(F)cc1)c1ccc(C(=O)O)cc1 [HL-43] | increase CRE-Luc activity in a dose dependent manner | increased | decreased | dose-dependently activated
